Here are results for six compounds from paper PMC6433685, “Histone deacetylase inhibitor LMK235 attenuates vascular constriction and aortic remodelling in hypertension” (Journal of Cellular and Molecular Medicine, 2019).

Assay [1] relates to bisphenol A‐induced hypertension. More on the design: method as in PMID 25103225. The following applies: cited from earlier work.
For a further assay, the system named is rat mesenteric arteries. The assay is described as follows: Isometric tension: relaxation of U46619-induced contraction in rat mesenteric artery rings. The note with it: mesenteric artery rings pretreated with 100 μmol/L for 30 minutes. More on the design: species or system Sprague‐Dawley rats. An excerpt: Male Sprague‐Dawley rats were purchased from Orient Bio (Gyeonggi‐do, South Korea). The thoracic aortas and mesenteric arteries were excised and immersed in an ice‐cold, modified Krebs solution composed of NaCl (115 mmol/L), KCl (4.7 mmol/L), CaCl2 (2.5 mmol/L), MgCl2 (1.2 mmol/L), NaHCO3 (25 mmol/L), KH2PO4 (1.2 mmol/L) and dextrose (10 mmol/L). Mesenteric arteries are secondary branches of the main mesenteric trunk. The aortas and mesenteric arteries were cleaned by removing adherent connective tissue, soaked in the Krebs‐bicarbonate solution and cut into four ring segments (3.5 mm in length), as described previously.14 Some rings were denuded of endothelium by gently rubbing the internal surface with the edge of the forceps. Each aortic ring was suspended in a water‐jacketed organ bath (6 mL) maintained at 37°C and aerated with a mixture of 95% O2 and 5% CO2. Each ring was connected to an isometric force transducer (Danish Myo Technology, Skejbyparken, Aarhus N, Denmark). Rings were stretched to an optimal resting tension of 2.0 g, which was maintained throughout the experiment. Each ring was equilibrated in the organ bath solution for 90 minutes before the experiment involving the contractile response to 50 mmol/L of KCl addition. […]

Another assay deals with HUVECs. The assay is described as follows: Nitric oxide production in HUVECs (DAF-FM DA fluorescence). It is filed as cell-based, Human. The following applies: 250 μmol/L, 24 h. Here is the method: A10 vascular smooth muscle cells (VSMCs) were incubated with Dulbecco's modified Eagle medium (DMEM) with 4500 mg/L glucose containing 10% foetal bovine serum (FBS). Passages were carried out every 2 or 3 days. VSMCs were maintained in DMEM in the presence of 10% FBS with low glucose (1000 mg/L). Human umbilical vein endothelial cells (HUVECs) were obtained from Gibco (Waltham, MA, USA). HUVECs were grown in an endothelial cell basal medium (EBM) with EGM‐2 bullet kit (Lonza, Walkersville, MD) and maintained at 37°C under 5% CO2. Cells were cultured for 5‐7 passages.
We used a nitric oxide‐sensitive fluorescence probe, 4‐amino‐5‐methylamino‐2′,7′‐difluorescein diacetate (DAF‐FM DA, Cayman), for nitric oxide detection. HUVECs were seeded on coverslips in 12‐well plates (1.5 × 10^5/mL). Cells, serum‐starved with EBM for 16 hour, were treated with LMK235 (1 μmol/L) or L‐NAME (250 μmol/L) for 24 hour and incubated with DAF‐FM DA (2.5 μmol/L) for 45 minutes. Next, the cells were fixed with 70% ethanol for 45 minutes and mounted using Prolog Gold antifade reagent and DAPI (Invitrogen, USA).

Assay [2] concerns angiotensin II‐induced hypertensive mice. The following applies: cited from earlier work; for elevated BP: angiotensin II-induced hypertensive mice.
The next assay concerns SHRs. The following applies: cited from earlier work.

Regarding `COc1ccc(S(=O)(=O)N(CCO)c2ccccc2CN(C)C/C=C/c2ccc(Cl)cc2)cc1` [KN 93], in assay [1], the “bisphenol A-induced hypertension” value is listed as “inhibit”.
As to `COC(=O)[C@@H](N)CCCNC(N)=N[N+](=O)[O-]` [L‐NAME, reference compound], the LMK235-induced vascular relaxation entry in the assay with rat mesenteric arteries is “inhibited vascular relaxation”. Moreover, the “LMK235-induced increase of nitric oxide production” value in the assay with HUVECs is listed as “reduced”.
Consider `Cn1c(/C=C/C(=O)NO)ccc1/C=C/C(=O)c1cccc(F)c1` [MC1568], for which the “vascular hypertrophy and hyperplasia” value in assay [2] (angiotensin II-induced hypertensive mice and VSMCs) was “attenuates”. In assay [2], the “elevated BP” value is given as “lowered elevated BP”.
Consider `CC(/C=C/C(=O)NO)=C\[C@@H](C)C(=O)c1ccc(N(C)C)cc1` [TSA, Trichostatin A], for which, in the assay with SHRs (SHRs), the “augmented angiotensin II-induced contraction in the mesenteric artery” value is listed as “reversed” and the “systolic BP” value is “decreased systolic BP”.
In the case of `CN1CCc2c(c3ccccc3n2Cc2ccc(C(=O)NO)cc2)C1` [tubastatin A], the “elevated BP” value in assay [2] was “not”.
In the case of `CCCC(CCC)C(=O)O` [valproic acid], the BP entry with SHRs (SHRs or DOCA-salt-induced hypertensive rats) is given as “attenuated BP”. Also, the “cardiac AT1 mRNA levels” value in the assay with SHRs (SHRs) is given as “reduced”.
